Legend:
Format in all cases: functional
[1] = tested on: NUGC-3; test: Antiproliferative activity against human NUGC3 cells at 0.1 uM by SRB assay
[2] = tested on: HCT-15; test: Antiproliferative activity against human HCT15 cells at 10 uM by SRB assay
[3] = tested on: MDA-MB-231; test: Antiproliferative activity against human MDA-MB-231 cells at 10 uM by SRB assay
[4] = tested on: MDA-MB-231; test: Antiproliferative activity against human MDA-MB-231 cells at 3 uM by SRB assay
[5] = tested on: MDA-MB-231; test: Antiproliferative activity against human MDA-MB-231 cells at 0.1 uM by SRB assay
[6] = tested on: MDA-MB-231; test: Antiproliferative activity against human MDA-MB-231 cells at 0.3 uM by SRB assay
[7] = tested on: PC-3; test: Antiproliferative activity against human PC3 cells at 3 uM by SRB assay
[8] = tested on: NUGC-3; test: Antiproliferative activity against human NUGC3 cells at 10 uM by SRB assay
[9] = tested on: NUGC-3; test: Antiproliferative activity against human NUGC3 cells at 1 uM by SRB assay
[10] = tested on: ACHN; test: Antiproliferative activity against human ACHN cells at 1 uM by SRB assay
[11] = tested on: HCT-15; test: Antiproliferative activity against human HCT15 cells at 3 uM by SRB assay
[12] = tested on: NCI-H23; test: Antiproliferative activity against human NCI-H23 cells at 10 uM by SRB assay
[13] = tested on: HCT-15; test: Antiproliferative activity against human HCT15 cells by SRB assay
[14] = tested on: HCT-15; test: Antiproliferative activity against human HCT15 cells at 0.3 uM by SRB assay
[15] = tested on: PC-3; test: Antiproliferative activity against human PC3 cells at 10 uM by SRB assay
[16] = tested on: PC-3; test: Antiproliferative activity against human PC3 cells at 1 uM by SRB assay
[17] = tested on: ACHN; test: Antiproliferative activity against human ACHN cells at 3 uM by SRB assay
[18] = tested on: NCI-H23; test: Antiproliferative activity against human NCI-H23 cells by SRB assay
[19] = tested on: NCI-H23; test: Antiproliferative activity against human NCI-H23 cells at 1 uM by SRB assay
[20] = tested on: MDA-MB-231; test: Antiproliferative activity against human MDA-MB-231 cells at 1 uM by SRB assay
[21] = tested on: NCI-H23; test: Antiproliferative activity against human NCI-H23 cells at 0.1 uM by SRB assay
[22] = tested on: ACHN; test: Antiproliferative activity against human ACHN cells by SRB assay
[23] = tested on: PC-3; test: Antiproliferative activity against human PC3 cells at 0.3 uM by SRB assay
[24] = tested on: PC-3; test: Antiproliferative activity against human PC3 cells by SRB assay
[25] = tested on: HCT-15; test: Antiproliferative activity against human HCT15 cells at 0.1 uM by SRB assay
[26] = tested on: ACHN; test: Antiproliferative activity against human ACHN cells at 0.3 uM by SRB assay
[27] = tested on: ACHN; test: Antiproliferative activity against human ACHN cells at 10 uM by SRB assay
[28] = tested on: NUGC-3; test: Antiproliferative activity against human NUGC3 cells at 0.3 uM by SRB assay
[29] = tested on: NUGC-3; test: Antiproliferative activity against human NUGC3 cells at 3 uM by SRB assay
[30] = tested on: MDA-MB-231; test: Antiproliferative activity against human MDA-MB-231 cells by SRB assay
[31] = tested on: PC-3; test: Antiproliferative activity against human PC3 cells at 0.1 uM by SRB assay
[32] = tested on: NCI-H23; test: Antiproliferative activity against human NCI-H23 cells at 3 uM by SRB assay
[33] = tested on: NCI-H23; test: Antiproliferative activity against human NCI-H23 cells at 0.3 uM by SRB assay
[34] = tested on: NUGC-3; test: Antiproliferative activity against human NUGC3 cells by SRB assay
[35] = tested on: ACHN; test: Antiproliferative activity against human ACHN cells at 0.1 uM by SRB assay
[36] = tested on: HCT-15; test: Antiproliferative activity against human HCT15 cells at 1 uM by SRB assay

| SMILES | growth, % of control at 0.1 µM [1] | growth, % of control at 10 µM [2] | growth, % of control at 10 µM [3] | growth, % of control at 3 µM [4] | growth, % of control at 0.1 µM [5] | growth, % of control at 0.3 µM [6] | growth, % of control at 3 µM [7] | growth, % of control at 10 µM [8] | growth, % of control at 1 µM [9] | growth, % of control at 1 µM [10] | growth, % of control at 3 µM [11] | growth, % of control at 10 µM [12] | GI50 [13] | growth, % of control at 0.3 µM [14] | growth, % of control at 10 µM [15] | growth, % of control at 1 µM [16] | growth, % of control at 3 µM [17] | GI50 [18] | growth, % of control at 1 µM [19] | growth, % of control at 1 µM [20] | other results |
| --- | --- | --- | --- | --- | --- | --- | --- | --- | --- | --- | --- | --- | --- | --- | --- | --- | --- | --- | --- | --- | --- |
| CCCCCCCCCCCCCCCC(=O)N(C)CCC[N+](C)(C)Cc1ccccc1 | 110% | 91% | 13.2% | 41% | 85.3% | 87.3% | 24.4% | -29.5% | 50.1% | 79.6% | 91.4% | -8.96% | > 10000 nM | 96.6% | 4.74% | 70.9% | 47.9% | 1110 nM | 91.6% | 87.3% | growth, % of control at 0.1 µM [21]: 85.2%; GI50 [22]: 1300 nM; growth, % of control at 0.3 µM [23]: 94.9%; GI50 [24]: 850 nM; growth, % of control at 0.1 µM [25]: 91.2%; growth, % of control at 0.3 µM [26]: 90.9%; growth, % of control at 10 µM [27]: -10.8%; growth, % of control at 0.3 µM [28]: 105%; growth, % of control at 3 µM [29]: -9.77%; GI50 [30]: 1350 nM; growth, % of control at 0.1 µM [31]: 87.8%; growth, % of control at 3 µM [32]: 25%; growth, % of control at 0.3 µM [33]: 91.3%; GI50 [34]: 520 nM; growth, % of control at 0.1 µM [35]: 96.9%; growth, % of control at 1 µM [36]: 96.5% |
| CCCCCCCCCCCCCCCC(=O)N(C)CC[N+](CC)(CC)CC | 99.2% | 3.4% | -17.3% | 12.6% | 94.3% | 80.4% | -5.6% | -50% | -14.6% | 16.7% | 24.6% | 8.5% | 610 nM | 83.5% | -24.2% | 12.6% | -15.6% | 1110 nM | 72.7% | 33.1% | growth, % of control at 0.1 µM [21]: 84%; GI50 [22]: 270 nM; growth, % of control at 0.3 µM [23]: 71.9%; GI50 [24]: 230 nM; growth, % of control at 0.1 µM [25]: 89.1%; growth, % of control at 0.3 µM [26]: 78.5%; growth, % of control at 10 µM [27]: -42.5%; growth, % of control at 0.3 µM [28]: 53.4%; growth, % of control at 3 µM [29]: -43.8%; GI50 [30]: 360 nM; growth, % of control at 0.1 µM [31]: 87.4%; growth, % of control at 3 µM [32]: 45.2%; growth, % of control at 0.3 µM [33]: 84.9%; GI50 [34]: 160 nM; growth, % of control at 0.1 µM [35]: 106%; growth, % of control at 1 µM [36]: 56.7% |
| CCCCCCCCCCCCCCCC(=O)N(C)CCC[N+](C)(C)CC | 101% | 40.3% | 19% | 47.2% | 98.7% | 97.7% | 1.57% | -37.1% | 7.32% | 62.3% | 69.2% | -15.5% | 3420 nM | 98.3% | -17.2% | 44.6% | 41.5% | 780 nM | 62.9% | 73.3% | growth, % of control at 0.1 µM [21]: 103%; GI50 [22]: 1020 nM; growth, % of control at 0.3 µM [23]: 101%; GI50 [24]: 490 nM; growth, % of control at 0.1 µM [25]: 95.6%; growth, % of control at 0.3 µM [26]: 95%; growth, % of control at 10 µM [27]: 15.7%; growth, % of control at 0.3 µM [28]: 77.8%; growth, % of control at 3 µM [29]: -18.5%; GI50 [30]: 1380 nM; growth, % of control at 0.1 µM [31]: 105%; growth, % of control at 3 µM [32]: 31.2%; growth, % of control at 0.3 µM [33]: 100%; GI50 [34]: 220 nM; growth, % of control at 0.1 µM [35]: 95.1%; growth, % of control at 1 µM [36]: 84.4% |
| CCCCCCCCCCCCCCCC(=O)N(C)CC[N+](CC)(CC)Cc1ccccc1 | 92.7% | 71.1% | -4.4% | 33.2% | 105% | 96.5% | 1.4% | -9.3% | 31.4% | 52.3% | 92.8% | 6.5% | > 10000 nM | 101% | -13.9% | 25.8% | 28% | 1220 nM | 75.4% | 82.1% | growth, % of control at 0.1 µM [21]: 113%; GI50 [22]: 600 nM; growth, % of control at 0.3 µM [23]: 80.4%; GI50 [24]: 310 nM; growth, % of control at 0.1 µM [25]: 100%; growth, % of control at 0.3 µM [26]: 86.3%; growth, % of control at 10 µM [27]: 1.6%; growth, % of control at 0.3 µM [28]: 84.8%; growth, % of control at 3 µM [29]: 1.3%; GI50 [30]: 1130 nM; growth, % of control at 0.1 µM [31]: 86.6%; growth, % of control at 3 µM [32]: 39.7%; growth, % of control at 0.3 µM [33]: 112%; GI50 [34]: 360 nM; growth, % of control at 0.1 µM [35]: 83.4%; growth, % of control at 1 µM [36]: 99.4% |
| CCCCCCCCCCCCCC(=O)N(C)CCC[N+](C)(C)Cc1ccccc1 | 84.5% | 25.1% | -2.09% | 44.2% | 105% | 106% | 4.38% | -11.6% | 43.8% | 99.3% | 78.5% | -11.5% | 2830 nM | 86.7% | -13.1% | 56.5% | 72.3% | 660 nM | 70.4% | 97.2% | growth, % of control at 0.1 µM [21]: 81%; GI50 [22]: 1890 nM; growth, % of control at 0.3 µM [23]: 87.4%; GI50 [24]: 530 nM; growth, % of control at 0.1 µM [25]: 89.9%; growth, % of control at 0.3 µM [26]: 109%; growth, % of control at 10 µM [27]: 1.92%; growth, % of control at 0.3 µM [28]: 90%; growth, % of control at 3 µM [29]: 8.51%; GI50 [30]: 1410 nM; growth, % of control at 0.1 µM [31]: 101%; growth, % of control at 3 µM [32]: 14.7%; growth, % of control at 0.3 µM [33]: 80%; GI50 [34]: 430 nM; growth, % of control at 0.1 µM [35]: 107%; growth, % of control at 1 µM [36]: 93.6% |
| CCCCCCCCCCCCCCCC(=O)N(C)CC[N+](C)(C)CC | 99.1% | 17.8% | -4.7% | 21.9% | 102% | 101% | -14.5% | -11.1% | 38.2% | 46.3% | 37.8% | -9.2% | 1010 nM | 85.9% | -18.9% | 10.8% | 10.2% | 580 nM | 53.8% | 59.1% | growth, % of control at 0.1 µM [21]: 91.2%; GI50 [22]: 580 nM; growth, % of control at 0.3 µM [23]: 84%; GI50 [24]: 250 nM; growth, % of control at 0.1 µM [25]: 93.4%; growth, % of control at 0.3 µM [26]: 95%; growth, % of control at 10 µM [27]: -14.5%; growth, % of control at 0.3 µM [28]: 91.8%; growth, % of control at 3 µM [29]: 9.7%; GI50 [30]: 660 nM; growth, % of control at 0.1 µM [31]: 90%; growth, % of control at 3 µM [32]: 30.6%; growth, % of control at 0.3 µM [33]: 84.4%; GI50 [34]: 410 nM; growth, % of control at 0.1 µM [35]: 110%; growth, % of control at 1 µM [36]: 70.5% |

Reference: ChEMBL document CHEMBL2380247, “Synthesis and biological evaluation of novel aliphatic amido-quaternary ammonium salts for anticancer chemotherapy: part II” (2013)
